From PubChem BioAssay (NCI)
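Following 48 hours of exposure in 96-well plates, responses at five concentrations were used to interpolate endpoints linearly. TGI denotes the concentration required for complete inhibition of growth.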

Tests used:
Experiment in all cases: NCI tumour cell line growth inhibition, 48 h
[1] = system: SK-OV-3 ovarian
[2] = system: IGROV1 ovarian
[3] = system: HOP-62 NSCLC
[4] = system: SK-MEL-5 melanoma
[5] = system: SR leukemia
[6] = system: SN12C renal
[7] = system: SK-MEL-2 melanoma
[8] = system: NCI-H226 lung
[9] = system: A498 renal
[10] = system: SF-268 CNS
[11] = system: SW-620 colon
[12] = system: TK-10 renal
[13] = system: CCRF-CEM leukemia
[14] = system: M14 melanoma
[15] = system: KM12 colon
[16] = system: RPMI-8226 leukemia
[17] = system: HCT-15 colon
[18] = system: HL-60(TB) leukemia
[19] = system: COLO 205 colon

## COc1ccc(C(=O)c2c3cc(OC)c(OC)c(OC)c3cc[n+]2C)cc1
[1]
  TGI: > 100 µM
[2]
  TGI: > 100 µM
[3]
  TGI: > 100 µM
[4]
  TGI: 35.1 µM
[5]
  TGI: > 100 µM
[6]
  TGI: > 100 µM
[7]
  TGI: 52.2 µM
[8]
  TGI: 65.2 µM
[9]
  TGI: > 100 µM
[10]
  TGI: > 100 µM
[11]
  TGI: > 100 µM
[12]
  TGI: > 100 µM
[13]
  TGI: 71.2 µM
[14]
  TGI: > 100 µM
[15]
  TGI: > 100 µM
[16]
  TGI: 49 µM

## CC(=O)OCCOCNC(=S)N/N=C/c1cc([N+](=O)[O-])ccc1O
[1]
  TGI: > 100 µM
[17]
  TGI: > 100 µM
[2]
  TGI: > 100 µM
[18]
  TGI: > 100 µM
[19]
  TGI: > 100 µM
[3]
  TGI: > 100 µM
[4]
  TGI: > 100 µM
[6]
  TGI: > 100 µM
[7]
  TGI: > 100 µM
[8]
  TGI: > 100 µM
[9]
  TGI: > 100 µM
[10]
  TGI: > 100 µM
[11]
  TGI: > 100 µM
[12]
  TGI: > 100 µM
[13]
  TGI: > 100 µM
[14]
  TGI: > 100 µM
[15]
  TGI: > 100 µM

## CCOc1cn(C2OC(CO)C(O)C2O)c(=O)[nH]c1=O (stereo not drawn)
[1]
  TGI: > 100 µM
[17]
  TGI: > 100 µM
[2]
  TGI: > 100 µM
[18]
  TGI: > 100 µM
[19]
  TGI: > 100 µM
[3]
  TGI: > 100 µM
[4]
  TGI: > 100 µM
[6]
  TGI: > 100 µM
[7]
  TGI: > 100 µM
[8]
  TGI: > 100 µM
[9]
  TGI: > 100 µM
[10]
  TGI: > 100 µM
[11]
  TGI: 89.5 µM
[12]
  TGI: > 100 µM
[13]
  TGI: > 100 µM
[14]
  TGI: > 100 µM
[15]
  TGI: > 100 µM
[16]
  TGI: > 100 µM

## CCOC(=O)C1=C(C)NC2=C(C(=O)N(c3ccccc3)C2c2ccccc2)C1c1ccccc1 (stereo not drawn)
[1]
  TGI: 31.4 µM
[17]
  TGI: 32.2 µM
[2]
  TGI: 40.8 µM
[18]
  TGI: 81.2 µM
[19]
  TGI: 33.5 µM
[3]
  TGI: 33.4 µM
[4]
  TGI: 28.6 µM
[5]
  TGI: 45.5 µM
[6]
  TGI: 35.8 µM
[7]
  TGI: 33.5 µM
[8]
  TGI: 37.1 µM
[10]
  TGI: 33.7 µM
[11]
  TGI: 47.5 µM
[12]
  TGI: 45.2 µM
[13]
  TGI: 58 µM
[14]
  TGI: 32.1 µM
[15]
  TGI: 33.7 µM
[16]
  TGI: 53.4 µM

## CC(=O)c1cc2c(s1)C(=O)c1sccc1C2=O
[1]
  TGI: 3.2 µM
[17]
  TGI: 0.0534 µM
[2]
  TGI: 0.337 µM
[19]
  TGI: 2.63 µM
[3]
  TGI: 0.0854 µM
[4]
  TGI: 0.0216 µM
[6]
  TGI: 0.0294 µM
[7]
  TGI: 0.193 µM
[8]
  TGI: 0.407 µM
[9]
  TGI: 2.77 µM
[10]
  TGI: 0.0889 µM
[11]
  TGI: 0.28 µM
[12]
  TGI: 0.414 µM
[13]
  TGI: 0.0912 µM
[15]
  TGI: 0.332 µM
[16]
  TGI: 0.191 µM

## CC(=O)Nc1ccc(-c2nnc(SCC(=O)Nc3cccc(Cl)c3)o2)cc1
[1]
  TGI: > 100 µM
[17]
  TGI: > 100 µM
[2]
  TGI: 32.5 µM
[18]
  TGI: 60.4 µM
[19]
  TGI: 31 µM
[3]
  TGI: 36.2 µM
[4]
  TGI: 29.1 µM
[6]
  TGI: 31.6 µM
[7]
  TGI: 70.4 µM
[8]
  TGI: 48.8 µM
[9]
  TGI: 34 µM
[10]
  TGI: 37.8 µM
[11]
  TGI: 28 µM
[12]
  TGI: 33.9 µM
[13]
  TGI: > 100 µM
[14]
  TGI: 29.5 µM
[15]
  TGI: 30.8 µM
[16]
  TGI: > 100 µM
